For this assay, the target named is Protein AF-9 (Homo sapiens) (UniProt P42568). The assay can be described thus: inhibitors of AF4-AF9 protein interaction, dose response, biochemical, cherry-picked samples, plate reader (AID 720495). The settings on record: biochemical protein-protein interaction assay; for activity change, negative = inhibition: at 10 µM (top of the series).

Results filed as inconclusive are left out. Activity calls are given as the source filed them. No rule for the calls is given here. Some results are limits rather than exact numbers.

Sequence of Protein AF-9 (Homo sapiens) (P42568 whole entry, looked up): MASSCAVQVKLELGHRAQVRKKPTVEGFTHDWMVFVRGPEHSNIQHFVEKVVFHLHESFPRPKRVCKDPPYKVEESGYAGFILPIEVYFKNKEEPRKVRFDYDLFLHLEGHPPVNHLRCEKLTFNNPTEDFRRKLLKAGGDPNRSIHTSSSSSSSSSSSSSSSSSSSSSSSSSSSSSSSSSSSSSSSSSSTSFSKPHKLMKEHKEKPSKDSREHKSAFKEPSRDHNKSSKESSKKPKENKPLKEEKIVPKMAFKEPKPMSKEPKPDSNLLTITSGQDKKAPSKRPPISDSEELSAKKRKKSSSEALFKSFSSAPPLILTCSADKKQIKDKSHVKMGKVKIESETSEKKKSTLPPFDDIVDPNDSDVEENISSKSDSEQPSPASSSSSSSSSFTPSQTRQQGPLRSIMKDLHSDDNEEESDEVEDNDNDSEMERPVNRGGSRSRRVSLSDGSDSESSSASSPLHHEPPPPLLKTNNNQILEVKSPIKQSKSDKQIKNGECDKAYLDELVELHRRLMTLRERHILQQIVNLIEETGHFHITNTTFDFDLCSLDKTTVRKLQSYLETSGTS

In the case of `O=C(O)CCNc1ccc(NCCC(=O)O)c2c1C(=O)c1ccccc1C2=O`, the “activity change, negative = inhibition” value is “inactive”.

Turning to `Cn1c(SCC(=O)N2c3ccccc3Sc3ccc(Cl)cc32)nnc1-c1ccco1`, the “activity change, negative = inhibition” value is “inactive”.

For `O=C(N/N=C/c1sc(N2CCCCC2)nc1-c1cccs1)C1CC1`, the “activity change, negative = inhibition” value was “inactive”.

By AC50 is commonly meant the midpoint of the concentration-response curve, whichever way the signal moves. As to `C[C@@H]1NC(=O)N[C@@H]1CCCCCC(=O)O`, the AC50 is below 0.08 µM.

Turning to `Cc1c(C)n(Cc2ccc(Cl)cc2)c2ccc(C(=O)NCCCN3CCOCC3)cc12`, the “activity change, negative = inhibition” value is “inactive”.

For the compound `COC1=C(Nc2ccc(O)cc2)C(=O)c2ccccc2C1=O`, the AC50 is 9.8 µM.

As for `O=C(COc1ccc2ccc(=O)oc2c1)Nc1ccc(N2CCCCC2)cc1`, the half-maximal activity concentration (AC50) was 9.56 µM.

For `C#CCOCCOCCOCCNc1nc(N2CCN(C(=O)[C@H](CCCCN)n3cc(CN)nn3)CC2)nc(N2CCN(C(=O)[C@H](CCCN=C(N)N)n3cc(C(N)[C@H](C)CC)nn3)CC2)n1` (stereo partly drawn), the AC50 is 2.81 µM.

`CC(=O)c1ccc(OCC(=O)Nc2ccc(N3CCCCC3)cc2)cc1`: the “activity change, negative = inhibition” value is “inactive”.

Regarding `C[C@@H]1CN([C@@H](C)CO)C(=O)c2cc(N(C)C)ccc2O[C@@H]1CN(C)Cc1ccc(-c2ccccc2)cc1`, the concentration at half-maximal activity (AC50) is 8.93 µM.

As for `CN(C)c1ccc(C(CNC(=O)c2ccccc2)c2c[nH]c3ccccc23)cc1` (stereo not drawn), the “activity change, negative = inhibition” value was “inactive”.

As for `CN(C)c1ccc(/C=C2/C[N+](C)(C)C/C(=C/c3ccc(N(C)C)cc3)C2=O)cc1`, the AC50 was 2.81 µM.

As to `COc1ccc(OC)c(C2=NOC(C(=O)Nc3c(C)n(C)n(-c4ccccc4)c3=O)C2)c1` (stereo not drawn), the “activity change, negative = inhibition” value is “inactive”.

The values are drawn from PubChem BioAssay AID720495 (Broad Institute, 2013).
